According to patent US12296014B2, “External preparation comprising non-lamellar liquid crystal-forming lipid” (FARNEX INCORPORATED, priority 2018, dated 2025):

Key:
[1] = cited from earlier work
[2] = Viscosity of the synthesized amphipathic compound; format: physicochemical; details: at shear velocity of 92 l/s
Method: Specifically, the amphipathic compound represented by the general formula (I) has a viscosity of preferably 15.0 Pa-s or less, more preferably 11.0 Pa-s or less, further preferably 6.0 Pa-s or less, by itself, as measured at 25° C. This viscosity can be measured using, for example, a viscosity and viscoelasticity measuring apparatus (Gemini II, Malvern Instruments Ltd.) at a temperature of 25° C.
^1H-NMR and viscosity of the obtained compound were measured.

| Viscosity [2] | Compound | pKa [1] |
| --- | --- | --- |
| – | CC1(C)O[C@@H]2C[C@H]3[C@@H]4CCC5=CC(=O)C=C[C@]5(C)[C@@]4(F)[C@@H](O)C[C@]3(C)[C@]2(C(=O)CO)O1 [triamcinolone acetonide] | 13.37 |
| 0.48 Pa·s | CC(=CCCC(=O)OCC(O)CO)CCCC(C)CCCC(C)C (stereo not shown) [Example 1, Mono-O-(5,9,13-trimethyltetradec-4-enoyl)glycerol] | – |
| 0.37 Pa·s | CC(C)=CCC/C(C)=C/CC/C(C)=C/CCC(C)=CCCC(=O)OCC(O)CO (racemic) [Example 6, Mono-O-(5,9,13,17-tetramethyloctadeca-4,8,12,16-tetraenoyl)glycerol] | – |
| 0.26 Pa·s | CC(C)=CCC/C(C)=C/CCC(C)=CCCC(=O)OCC(O)CO (racemic) [Example 3, Mono-O-(5,9,13-trimethyltetradeca-4,8,12-trienoyl)glycerol] | – |
